Values of other authors as cited in paper PMC5560747, “Computational-experimental approach to drug-target interaction mapping: A case study on kinase inhibitors” (PLoS Computational Biology, 2017).

Assays:
Parameters in all cases: method as in Gao et al. [42]
BTK = BTK (Homo sapiens, UniProt Q06187); conditions: ref Gao et al. [42], cited from earlier work
RET = conditions: ref Gao et al. [42], cited from earlier work
PYK2 = PYK2 (Homo sapiens, UniProt Q14289); conditions: ref Gao et al. [42], cited from earlier work
Sequence of PYK2 (Q14289 whole entry): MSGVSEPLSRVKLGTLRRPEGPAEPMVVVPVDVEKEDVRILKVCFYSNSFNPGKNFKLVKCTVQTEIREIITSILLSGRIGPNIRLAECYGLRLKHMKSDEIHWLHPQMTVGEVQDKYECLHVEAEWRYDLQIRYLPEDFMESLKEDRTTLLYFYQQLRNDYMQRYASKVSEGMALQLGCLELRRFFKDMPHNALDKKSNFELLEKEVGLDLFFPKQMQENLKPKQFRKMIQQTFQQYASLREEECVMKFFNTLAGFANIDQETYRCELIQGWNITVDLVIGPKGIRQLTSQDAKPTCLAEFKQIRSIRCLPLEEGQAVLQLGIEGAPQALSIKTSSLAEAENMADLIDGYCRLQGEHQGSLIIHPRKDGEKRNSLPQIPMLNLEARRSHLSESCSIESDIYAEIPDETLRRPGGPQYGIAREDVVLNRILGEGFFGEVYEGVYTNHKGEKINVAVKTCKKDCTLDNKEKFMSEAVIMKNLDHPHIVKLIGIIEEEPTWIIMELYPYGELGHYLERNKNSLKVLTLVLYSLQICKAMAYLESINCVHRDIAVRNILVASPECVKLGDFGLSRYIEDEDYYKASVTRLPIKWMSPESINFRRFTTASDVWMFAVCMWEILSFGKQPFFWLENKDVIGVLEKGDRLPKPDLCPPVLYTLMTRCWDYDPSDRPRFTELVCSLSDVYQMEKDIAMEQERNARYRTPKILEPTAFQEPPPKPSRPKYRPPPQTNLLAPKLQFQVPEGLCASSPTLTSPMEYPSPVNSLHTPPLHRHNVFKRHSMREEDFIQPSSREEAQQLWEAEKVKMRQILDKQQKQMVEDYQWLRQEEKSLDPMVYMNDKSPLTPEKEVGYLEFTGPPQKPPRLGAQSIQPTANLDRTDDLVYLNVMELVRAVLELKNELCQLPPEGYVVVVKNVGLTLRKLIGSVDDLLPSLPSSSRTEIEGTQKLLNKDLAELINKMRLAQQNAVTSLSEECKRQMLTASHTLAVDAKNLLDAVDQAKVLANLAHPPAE

ROS1 = conditions: ref Gao et al. [42], cited from earlier work
PIM1 = conditions: ref Gao et al. [42], cited from earlier work
CSNK1G2 = conditions: ref Gao et al. [42], cited from earlier work
ROCK1 = conditions: ref Gao et al. [42], cited from earlier work
DAPK3 = conditions: ref Gao et al. [42], cited from earlier work
CAMK2B = conditions: ref Gao et al. [42], cited from earlier work
CHK2 = conditions: ref Gao et al. [42], cited from earlier work
PIM2 = conditions: ref Gao et al. [42], cited from earlier work
PLK3 = conditions: ref Gao et al. [42], cited from earlier work
PLK1 = conditions: ref Gao et al. [42]; cited from earlier work
MAPK9 = conditions: ref Gao et al. [42], cited from earlier work
ERK2 = conditions: ref Gao et al. [42], cited from earlier work
PRKX = conditions: ref Gao et al. [42], cited from earlier work
CLK2 = conditions: ref Gao et al. [42], cited from earlier work
MAP4K2 = conditions: ref Gao et al. [42], cited from earlier work
IRAK4 = conditions: ref Gao et al. [42], cited from earlier work
TAOK1 = conditions: ref Gao et al. [42], cited from earlier work
MAPKAPK5 = conditions: ref Gao et al. [42], cited from earlier work
CDK5/p25 = conditions: ref Gao et al. [42], cited from earlier work
CSNK1G1 = conditions: ref Gao et al. [42], cited from earlier work
AKT1 = conditions: ref Gao et al. [42], cited from earlier work
CHUK = conditions: ref Gao et al. [42], cited from earlier work
MARK2 = conditions: ref Gao et al. [42], cited from earlier work
FRK = molecular target: T1, FRK (Homo sapiens, UniProt P42685); conditions: ref Gao et al. [42], cited from earlier work
T1 construct: purchased SignalChem F14-11G-10
T1 sequence (P42685 whole entry): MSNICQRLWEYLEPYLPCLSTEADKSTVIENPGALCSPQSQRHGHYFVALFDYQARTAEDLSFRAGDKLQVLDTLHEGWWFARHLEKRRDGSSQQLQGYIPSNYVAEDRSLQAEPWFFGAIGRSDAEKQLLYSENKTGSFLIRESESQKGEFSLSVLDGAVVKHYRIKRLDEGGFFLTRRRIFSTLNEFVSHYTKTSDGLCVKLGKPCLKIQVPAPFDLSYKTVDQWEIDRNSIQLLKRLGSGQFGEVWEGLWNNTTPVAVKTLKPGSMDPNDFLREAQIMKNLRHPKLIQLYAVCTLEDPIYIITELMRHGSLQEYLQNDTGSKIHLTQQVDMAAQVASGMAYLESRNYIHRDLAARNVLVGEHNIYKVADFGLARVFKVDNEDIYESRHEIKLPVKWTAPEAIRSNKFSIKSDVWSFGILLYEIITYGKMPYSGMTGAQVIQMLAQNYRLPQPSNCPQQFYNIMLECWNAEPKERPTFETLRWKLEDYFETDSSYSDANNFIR

MINK1 = conditions: ref Gao et al. [42], cited from earlier work
CSNK1G3 = conditions: ref Gao et al. [42], cited from earlier work
ITK = ITK (Homo sapiens, UniProt Q08881); conditions: ref Gao et al. [42]; cited from earlier work
InsR = InsR (Homo sapiens, UniProt P06213); conditions: ref Gao et al. [42], cited from earlier work
Sequence of InsR (P06213 28-1382): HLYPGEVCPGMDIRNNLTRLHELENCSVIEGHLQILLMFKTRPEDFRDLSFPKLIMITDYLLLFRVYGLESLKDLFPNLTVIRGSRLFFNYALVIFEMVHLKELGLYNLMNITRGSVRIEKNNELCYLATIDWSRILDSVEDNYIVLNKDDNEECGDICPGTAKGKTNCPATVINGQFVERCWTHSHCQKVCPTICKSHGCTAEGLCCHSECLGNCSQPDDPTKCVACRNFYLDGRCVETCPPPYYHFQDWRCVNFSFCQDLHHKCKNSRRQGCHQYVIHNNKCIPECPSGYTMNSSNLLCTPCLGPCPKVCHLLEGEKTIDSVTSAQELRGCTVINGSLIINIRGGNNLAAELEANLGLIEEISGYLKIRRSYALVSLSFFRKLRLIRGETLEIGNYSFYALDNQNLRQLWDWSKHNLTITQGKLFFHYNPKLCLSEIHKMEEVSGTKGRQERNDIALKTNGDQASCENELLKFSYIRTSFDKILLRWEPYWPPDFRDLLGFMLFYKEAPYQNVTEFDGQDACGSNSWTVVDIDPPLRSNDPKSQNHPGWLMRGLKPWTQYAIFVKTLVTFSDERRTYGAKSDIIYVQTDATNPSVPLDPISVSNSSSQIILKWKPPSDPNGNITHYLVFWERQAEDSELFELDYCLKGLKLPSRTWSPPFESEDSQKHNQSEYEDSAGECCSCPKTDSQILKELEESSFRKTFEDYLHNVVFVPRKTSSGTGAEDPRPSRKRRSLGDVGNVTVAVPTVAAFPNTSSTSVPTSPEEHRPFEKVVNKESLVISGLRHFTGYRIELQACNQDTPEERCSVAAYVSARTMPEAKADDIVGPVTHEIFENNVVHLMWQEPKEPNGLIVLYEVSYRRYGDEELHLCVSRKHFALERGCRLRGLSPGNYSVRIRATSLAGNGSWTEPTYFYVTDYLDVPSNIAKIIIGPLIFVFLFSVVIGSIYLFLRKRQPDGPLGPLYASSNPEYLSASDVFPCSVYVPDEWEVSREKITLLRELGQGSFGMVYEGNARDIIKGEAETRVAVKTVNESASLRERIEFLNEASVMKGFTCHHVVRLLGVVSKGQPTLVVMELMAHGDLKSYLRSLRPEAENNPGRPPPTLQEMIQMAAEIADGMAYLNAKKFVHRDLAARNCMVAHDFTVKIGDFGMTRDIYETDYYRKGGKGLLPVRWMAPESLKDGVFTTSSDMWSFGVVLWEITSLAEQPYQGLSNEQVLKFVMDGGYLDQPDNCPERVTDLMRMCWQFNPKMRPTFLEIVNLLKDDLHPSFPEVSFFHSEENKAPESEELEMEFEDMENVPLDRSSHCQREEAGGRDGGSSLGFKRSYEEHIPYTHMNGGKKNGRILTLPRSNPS

FLT4 = FLT4 (Homo sapiens, UniProt P35916); conditions: ref Gao et al. [42], cited from earlier work
Sequence of FLT4 (P35916 25-1363): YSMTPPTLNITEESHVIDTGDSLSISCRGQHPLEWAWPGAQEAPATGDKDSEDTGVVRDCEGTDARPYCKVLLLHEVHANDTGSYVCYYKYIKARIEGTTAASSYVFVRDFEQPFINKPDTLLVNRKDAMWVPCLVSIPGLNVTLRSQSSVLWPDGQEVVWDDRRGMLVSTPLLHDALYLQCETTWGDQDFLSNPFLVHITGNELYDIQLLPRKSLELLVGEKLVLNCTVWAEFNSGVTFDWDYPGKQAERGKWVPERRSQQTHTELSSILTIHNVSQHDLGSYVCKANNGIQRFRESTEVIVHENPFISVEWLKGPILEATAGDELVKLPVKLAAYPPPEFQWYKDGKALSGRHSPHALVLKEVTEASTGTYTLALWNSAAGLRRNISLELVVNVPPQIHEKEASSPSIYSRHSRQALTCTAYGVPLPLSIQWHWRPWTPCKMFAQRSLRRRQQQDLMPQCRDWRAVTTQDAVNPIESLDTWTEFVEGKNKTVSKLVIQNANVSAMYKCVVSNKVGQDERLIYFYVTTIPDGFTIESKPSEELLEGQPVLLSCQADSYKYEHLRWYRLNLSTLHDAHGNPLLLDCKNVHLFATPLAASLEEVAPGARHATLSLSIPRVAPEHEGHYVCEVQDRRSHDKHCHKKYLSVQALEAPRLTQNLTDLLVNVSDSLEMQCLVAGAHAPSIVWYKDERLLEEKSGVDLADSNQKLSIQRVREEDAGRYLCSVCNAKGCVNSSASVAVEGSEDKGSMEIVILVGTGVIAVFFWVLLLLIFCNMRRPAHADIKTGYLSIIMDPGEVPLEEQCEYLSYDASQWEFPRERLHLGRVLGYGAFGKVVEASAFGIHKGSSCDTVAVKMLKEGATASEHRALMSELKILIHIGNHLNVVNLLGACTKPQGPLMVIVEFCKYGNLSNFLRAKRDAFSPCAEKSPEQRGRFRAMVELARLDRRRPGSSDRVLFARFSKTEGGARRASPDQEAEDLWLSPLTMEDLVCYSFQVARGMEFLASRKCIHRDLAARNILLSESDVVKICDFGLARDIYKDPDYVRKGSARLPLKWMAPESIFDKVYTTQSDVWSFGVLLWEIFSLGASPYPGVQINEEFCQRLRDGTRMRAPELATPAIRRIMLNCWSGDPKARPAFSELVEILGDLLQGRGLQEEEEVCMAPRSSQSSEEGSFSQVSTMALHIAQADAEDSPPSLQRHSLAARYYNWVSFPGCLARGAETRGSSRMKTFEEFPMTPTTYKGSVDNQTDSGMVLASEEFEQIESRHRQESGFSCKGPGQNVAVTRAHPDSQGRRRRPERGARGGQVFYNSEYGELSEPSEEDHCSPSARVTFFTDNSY

TYRO3 = conditions: ref Gao et al. [42], cited from earlier work
PHKG2 = conditions: ref Gao et al. [42], cited from earlier work

Sequence of BTK (Q06187 whole entry): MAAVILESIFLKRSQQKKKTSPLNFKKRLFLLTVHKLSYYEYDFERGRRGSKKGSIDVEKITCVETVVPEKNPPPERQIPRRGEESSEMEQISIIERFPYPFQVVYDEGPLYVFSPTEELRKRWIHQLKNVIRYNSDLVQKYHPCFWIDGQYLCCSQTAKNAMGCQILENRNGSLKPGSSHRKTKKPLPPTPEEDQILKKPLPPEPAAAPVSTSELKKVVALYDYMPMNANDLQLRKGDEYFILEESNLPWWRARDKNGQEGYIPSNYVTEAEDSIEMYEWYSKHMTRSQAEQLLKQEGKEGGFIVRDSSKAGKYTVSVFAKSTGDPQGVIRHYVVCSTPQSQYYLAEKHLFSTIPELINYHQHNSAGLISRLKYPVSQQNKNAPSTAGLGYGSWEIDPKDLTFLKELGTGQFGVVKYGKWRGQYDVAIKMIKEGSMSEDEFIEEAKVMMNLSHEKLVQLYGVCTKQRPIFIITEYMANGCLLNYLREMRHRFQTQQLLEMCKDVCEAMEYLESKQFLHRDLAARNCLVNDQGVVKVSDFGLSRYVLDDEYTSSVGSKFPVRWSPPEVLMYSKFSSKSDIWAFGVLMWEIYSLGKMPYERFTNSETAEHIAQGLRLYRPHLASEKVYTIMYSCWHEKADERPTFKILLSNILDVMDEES

COc1cc2nccc(Oc3ccc(NC(=O)Nc4cc(C)on4)c(Cl)c3)c2cc1OC [TIVOZANIB, Tivozanib]
Gao et al. % of activity remaining at 1 µM (BTK; 1 µM): 50% | Gao et al. % of activity remaining at 10 µM (BTK; 10 µM): 10% | Gao et al. % of activity remaining at 1 µM (RET; 1 µM): 0% | Gao et al. % of activity remaining at 10 µM (RET; 10 µM): -1% | Gao et al. % of activity remaining at 1 µM (PYK2; 1 µM): 34% | Gao et al. % of activity remaining at 10 µM (PYK2; 10 µM): 8% | Gao et al. % of activity remaining at 1 µM (ROS1; 1 µM): 24% | Gao et al. % of activity remaining at 10 µM (ROS1; 10 µM): 16% | Gao et al. % of activity remaining at 1 µM (PIM1; 1 µM): 95% | Gao et al. % of activity remaining at 10 µM (PIM1; 10 µM): 86% | Gao et al. % of activity remaining at 1 µM (CSNK1G2; 1 µM): 80% | Gao et al. % of activity remaining at 10 µM (CSNK1G2; 10 µM): 73% | Gao et al. % of activity remaining at 1 µM (ROCK1; 1 µM): 113% | Gao et al. % of activity remaining at 10 µM (ROCK1; 10 µM): 112% | Gao et al. % of activity remaining at 1 µM (DAPK3; 1 µM): 82% | Gao et al. % of activity remaining at 10 µM (DAPK3; 10 µM): 90% | Gao et al. % of activity remaining at 1 µM (CAMK2B; 1 µM): 97% | Gao et al. % of activity remaining at 10 µM (CAMK2B; 10 µM): 69% | Gao et al. % of activity remaining at 1 µM (CHK2; 1 µM): 79% | Gao et al. % of activity remaining at 10 µM (CHK2; 10 µM): 30% | Gao et al. % of activity remaining at 1 µM (PIM2; 1 µM): 114% | Gao et al. % of activity remaining at 10 µM (PIM2; 10 µM): 103% | Gao et al. % of activity remaining at 1 µM (PLK3; 1 µM): 85% | Gao et al. % of activity remaining at 10 µM (PLK3; 10 µM): 87% | Gao et al. % of activity remaining at 10 µM (PLK1): 75% | Gao et al. % of activity remaining at 1 µM (MAPK9; 1 µM): 104% | Gao et al. % of activity remaining at 10 µM (MAPK9; 10 µM): 88% | Gao et al. % of activity remaining at 1 µM (ERK2; 1 µM): 103% | Gao et al. % of activity remaining at 10 µM (ERK2; 10 µM): 104% | Gao et al. % of activity remaining at 1 µM (PRKX; 1 µM): 97% | Gao et al. % of activity remaining at 10 µM (PRKX; 10 µM): 59% | Gao et al. % of activity remaining at 1 µM (CLK2; 1 µM): 114% | Gao et al. % of activity remaining at 10 µM (CLK2; 10 µM): 99% | Gao et al. % of activity remaining at 1 µM (MAP4K2; 1 µM): 47% | Gao et al. % of activity remaining at 10 µM (MAP4K2; 10 µM): 17% | Gao et al. % of activity remaining at 1 µM (IRAK4; 1 µM): 85% | Gao et al. % of activity remaining at 10 µM (IRAK4; 10 µM): 47% | Gao et al. % of activity remaining at 1 µM (TAOK1; 1 µM): 91% | Gao et al. % of activity remaining at 10 µM (TAOK1; 10 µM): 52% | Gao et al. % of activity remaining at 1 µM (MAPKAPK5; 1 µM): 99% | Gao et al. % of activity remaining at 10 µM (MAPKAPK5; 10 µM): 70% | Gao et al. % of activity remaining at 1 µM (CDK5/p25; 1 µM): 90% | Gao et al. % of activity remaining at 10 µM (CDK5/p25; 10 µM): 95% | Gao et al. % of activity remaining at 1 µM (CSNK1G1; 1 µM): 89% | Gao et al. % of activity remaining at 10 µM (CSNK1G1; 10 µM): 57% | Gao et al. % of activity remaining at 1 µM (AKT1; 1 µM): 97% | Gao et al. % of activity remaining at 10 µM (AKT1; 10 µM): 101% | Gao et al. % of activity remaining at 1 µM (CHUK; 1 µM): 91% | Gao et al. % of activity remaining at 10 µM (CHUK; 10 µM): 114% | Gao et al. % of activity remaining at 1 µM (MARK2; 1 µM): 98% | Gao et al. % of activity remaining at 10 µM (MARK2; 10 µM): 106% | Gao et al. % of activity remaining at 1 µM (FRK; 1 µM): 2% | Gao et al. % of activity remaining at 10 µM (FRK; 10 µM): -3% | Gao et al. % of activity remaining at 1 µM (MINK1; 1 µM): 71% | Gao et al. % of activity remaining at 10 µM (MINK1; 10 µM): 21% | Gao et al. % of activity remaining at 1 µM (CSNK1G3; 1 µM): 104% | Gao et al. % of activity remaining at 10 µM (CSNK1G3; 10 µM): 93% | Gao et al. % of activity remaining at 10 µM (ITK): 51% | Gao et al. % of activity remaining at 1 µM (InsR; 1 µM): 102% | Gao et al. % of activity remaining at 10 µM (InsR; 10 µM): 29% | Gao et al. % of activity remaining at 1 µM (FLT4; 1 µM): -1% | Gao et al. % of activity remaining at 10 µM (FLT4; 10 µM): -1% | Gao et al. % of activity remaining at 1 µM (TYRO3; 1 µM): 10% | Gao et al. % of activity remaining at 10 µM (TYRO3; 10 µM): 8% | Gao et al. % of activity remaining at 1 µM (PHKG2; 1 µM): 95% | Gao et al. % of activity remaining at 10 µM (PHKG2; 10 µM): 66%
